Data on ten molecules can be found in publication PMC8880315, “Understanding the Impact of Age-Related Changes in Pediatric GI Solubility by Multivariate Data Analysis” (Pharmaceutics, 2022).

On the set-up of data set [1]: method as in PMID 26220249. Conditions: cited from earlier work.
Data set [2] is described as follows: physchem. The settings on record: 37 °C, thermodynamic from solid.
Data set [3] is described as follows: physchem. The settings on record: adult fed state simulated gastric fluid (FeSSGF), milk-based, 37 °C, pH 5, fassgf or other biorelevant, thermodynamic from solid.
For data set [4] the following is noted: cited from earlier work.
Setting [5] is: at least one of the newborn FeSSIF (Pnb-FeSSIF and Pnc-FeSSIF), previous solubility study.
The mark [6] stands for this setting: adult fasted state simulated gastric fluid (FaSSGF), pH 1.6, fassgf or other biorelevant.
[7] abbreviates: adult fasted state simulated intestinal fluid (FaSSIF-V2), pH 6.5, fassif.
The mark [8] stands for this setting: adult fed state simulated intestinal fluid (FeSSIF-V2), pH 5.8, fessif.
The mark [9] stands for this setting: Table 1, reference per cell, none given for mebendazole.

Converted amounts (≈) assume the structure as drawn. Where two headings read alike, the source gives them in different places.

With `O=C1NC(=O)C(c2ccccc2)(c2ccccc2)N1` [phenytoin], the “Sp/Sa (%)” value was “significant lower” in data set [1] (Pnc-FeSSIF, compound of the previous study) and “below 80 % of adult values” in data set [1] (setting [5]).
In the case of `OCCN(CCO)c1nc(N2CCCCC2)c2nc(N(CCO)CCO)nc(N3CCCCC3)c2n1` [Dipyridamole], the solubility at 24 h in the data set “physchem [2]” (setting [6]) is 11500 ± 570 µg/mL (≈ 22800 µM); in the data set “physchem [2]” (setting [7]) it was 11.9 ± 0.17 µg/mL (≈ 23.5 µM); in “physchem [2]” (setting [8]), 81.4 ± 1.74 µg/mL (≈ 161 µM). In the data set “physchem [3]”, this molecule had a solubility at 48 h of 158 ± 7.22 µg/mL (≈ 314 µM). Besides, the “solubility in pediatric vs adult medium” value (Pnc-FeSSGF (cow's milk formula) vs adult FeSSGF) is “significantly lower solubility”; the “solubility in pediatric vs adult medium” value (Pns-FeSSGF (soy formula) vs adult FeSSGF) is listed as “significantly higher solubility”; the “solubility in pediatric vs adult medium” value (all pediatric fed intestinal media (Pnb-FeSSIF, Pnc-FeSSIF, Pi-FeSSIF) vs adult FeSSIF-V2) is reported as “significant solubility differences”; the “solubility in pediatric vs adult medium” value (pediatric fasted gastric fluids (Pn-FaSSGF and Pi-FaSSGF) vs adult FaSSGF, ANOVA p ≤ 0.05) was “higher solubility in both pediatric gastric fluids; however, these differences were not statistically significant”. Besides, the “pKa (basic)” value in data set [4] (setting [9]) is 5.7–6.4 (basic) [19, 20].
For the molecule `Nc1ccc(S(=O)(=O)c2ccc(N)cc2)cc1` [dapsone], the logP in data set [4] (no reference given) is listed as 0.97.
`COc1ccc2c(c1)c(CC(=O)O)c(C)n2C(=O)c1ccc(Cl)cc1` [indomethacin]: the “Sp/Sa (%) vs 80–[…] threshold” value in data set [1] (newborn gastric media (Pn-FaSSGF), previous study) is listed as “outside the limits of the 80–125% threshold”. Moreover, in data set [4] (no reference given), the logP is reported as 4.3.
As to `COC1=CC(=O)C[C@@H](C)[C@]12Oc1c(Cl)c(OC)cc(OC)c1C2=O` [griseofulvin], the “Sp/Sa (%)” value in data set [1] (setting [5]) is “below 80 % of adult values”.
On to `COC(=O)Nc1nc2ccc(C(=O)c3ccccc3)cc2[nH]1` [Mebendazole], for which, in data set [4] (setting [9]), the logP is 2.80 and the “pKa (basic)” value is reported as 3.5 (basic).
Turning to `NC(=O)N1c2ccccc2C=Cc2ccccc21` [carbamazepine], the “solubility in pediatric gastric fluids in comparison to adult gastric fluids” value in data set [1] (fasted gastric fluids, previous study) is “statistical different (p ≤ 0.05) and outside the purported bioequivalence criterion”.
Take `Nc1ccc(O)c(C(=O)O)c1` [Mesalazine]: in data set [4] (setting [9]), the logP was 0.98 [8] and the “pKa (basic)” value is given as 5.69. The “pKa (acidic)” value in data set [4] (Table 1, reference per cell) is reported as 2.3. The “pKa (basic)” value in data set [4] (no reference given) is 5.7.
Regarding `CC(C)(O)c1ccccc1CC[C@@H](SCC1(CC(=O)O)CC1)c1cccc(/C=C/c2ccc3ccc(Cl)cc3n2)c1` [Montelukast], the “pKa (basic)” value in data set [4] (setting [9]) is on record as 2.7. Also, the “pKa (acidic)” value in data set [4] (Table 1, reference per cell) is on record as 5.8.
On to `O=C1CN(/N=C/c2ccc([N+](=O)[O-])o2)C(=O)N1` [Nitrofurantoin], for which the solubility at 24 h in the data set “physchem [2]” (setting [6]) was 196 ± 11.7 µg/mL (≈ 823 µM); in “physchem [2]” (setting [7]), 215.7 ± 1.96 µg/mL (≈ 906 µM); in “physchem [2]” (setting [8]), 209 ± 3.22 µg/mL (≈ 879 µM). In the data set “physchem [3]”, this molecule registered a solubility at 48 h of 390 ± 6.35 µg/mL (≈ 1640 µM). Moreover, the “Sp/Sa (%) vs 80–[…] risk assessment limits” value (all pediatric media tested) is on record as “within the 80–125% risk assessment limits”. Further, the “solubility differences between adults and pediatrics” value (all pediatric media tested) is recorded as “no significant solubility differences”. In data set [4] (Table 1, reference per cell), the “pKa (acidic)” value was 7.2 (acidic) [13].
